The record followed here is the OligoGym collection.

These antisense oligonucleotides have a phosphorothioate backbone; sugars and methylation of C are not fully specified.
Note: test concentration or dose not given here.

The target in the first series is CHUK. The following applies: ASO.
AAATATACACTTTGGATC: the remaining target (mRNA or protein) (fraction of control) was no less than 1.
Same read-out and setting: to AAGTCTCCCCATCTTGAG belongs no less than 1; to AATTTACACAATCAGATA, no less than 1; to ACAGACAGACGTTCCCGA, 0.85.
Same read-out and setting: to ACATTGCTGCCCTTTGTC belongs 0.54; to AGAACACATTGAGAGGCT, 0.8; to AGCAATACATTCAAATAC, no less than 1.
The sequence AGGATGTGTACTATCTTC showed a remaining target (mRNA or protein) (fraction of control) of 0.79.
Sequence AGTATCTGGCTTTCTTTA had a remaining target (mRNA or protein) (fraction of control) of no less than 1.

Another series addresses PRKACA. The conditions noted are these: ASO.
AAACCACTTGTGGTTCTTGA showed a remaining target (mRNA or protein) (fraction of control) of 0.66.
Consider AAGCAACCCACTGAACATGT, for which the remaining target (mRNA or protein) (fraction of control) turned out to be 0.62.
Sequence ACCCTCGCAGGATTGGCAGA returned a remaining target (mRNA or protein) (fraction of control) of 0.47.
The sequence AGCACAAATGAGAAAGTGGG yielded a remaining target (mRNA or protein) (fraction of control) of 0.93.
As for ATTCTTTCACGCTCTCCTGC, the remaining target (mRNA or protein) (fraction of control) stood at 0.97.
The sequence CAAACTGATCCAAGTGGGCT came in with a remaining target (mRNA or protein) (fraction of control) of 0.27.
Sequence CACACAGGTTGAATCGCCCC displayed a remaining target (mRNA or protein) (fraction of control) of 0.39.
Still for that read-out and setting: to CAGGCAGCCCCTCCCCAGCA belongs 0.51; to CATCGCGGCGGCGGCGGCCG, 0.51.
CCAGCATCACCCGCCCGAAG displayed a remaining target (mRNA or protein) (fraction of control) of 0.34.
As to CCCATCGCGGCGGCGGCGGC, the remaining target (mRNA or protein) (fraction of control) amounted to 0.53.
Sequence CCTTGAACCCCGGGCCGTGG had a remaining target (mRNA or protein) (fraction of control) of 0.44.
In turn, CGCTGCTGGGAGGAAAGACT came in with a remaining target (mRNA or protein) (fraction of control) of 0.48.
Consider CGGCGGCGGCGTTGCCCATC, for which the remaining target (mRNA or protein) (fraction of control) worked out at 0.21.
CGGCGTTGCCCATCGCGGCG had a remaining target (mRNA or protein) (fraction of control) of 0.47.
As to CTTCCTCATAGTCGTCAAAG, the remaining target (mRNA or protein) (fraction of control) came to 0.68.
Turning to CTTCTGTTTGTCGAGGATCT, the remaining target (mRNA or protein) (fraction of control) is 0.49.
Turning to GAACATCTCCCCGCCGGGCA, the remaining target (mRNA or protein) (fraction of control) was determined as 0.87.
GCGGCCCTTCACGCGCTTGG yielded a remaining target (mRNA or protein) (fraction of control) of no less than 1.
Take GCGGCGGCGTTGCCCATCGC: the remaining target (mRNA or protein) (fraction of control) stood at 0.33.
GCGGCGGGTGCTGGCTGCGG yielded a remaining target (mRNA or protein) (fraction of control) of 0.85.
GCGTTGCCCATCGCGGCGGC gave a remaining target (mRNA or protein) (fraction of control) of 0.36.
On the same count and under the same terms, to GCTTCTCTTTAAAATGGATT belongs 0.84; to GCTTGCAGGATGCGCTTTTC, 0.34; to GGAGCAGCTGGTGTTTCTGT, 0.61.
The sequence GGCATGCCCCTAAAACTCAG returned a remaining target (mRNA or protein) (fraction of control) of 0.55.
For GGCGGCGGCGGCGTTGCCCA, the remaining target (mRNA or protein) (fraction of control) was 0.51.
For GGCGGCGTTGCCCATCGCGG, the remaining target (mRNA or protein) (fraction of control) worked out at 0.31.
Regarding GTTGCCCATCGCGGCGGCGG, the remaining target (mRNA or protein) (fraction of control) was found to be 0.53.
As to GTTGTCCTTGAAGGAGAACT, the remaining target (mRNA or protein) (fraction of control) was no less than 1.
In turn, TAGATGAGATCCAGCGAGTG returned a remaining target (mRNA or protein) (fraction of control) of 0.72.
On the same count and under the same terms, to TAGTTTTCAAATATGTTTAC belongs no less than 1; to TCCTTCAAGTCAGAGCTGAA, 0.56.
In the case of TCGCGGCGGCGGCGGCCGGG, the remaining target (mRNA or protein) (fraction of control) was 0.81.
Consider TCTGCGAAGAAGGGCGGGTA, for which the remaining target (mRNA or protein) (fraction of control) is no less than 1.
The same measure, in the same setting: to TGCAGGGATGCCCTCCCCAC belongs 0.35.
Sequence TGCCCATCGCGGCGGCGGCG returned a remaining target (mRNA or protein) (fraction of control) of 0.71.
In turn, TGGCTCCCCAGCGGCTCCCC came in with a remaining target (mRNA or protein) (fraction of control) of 0.64.
Still for that read-out and setting: to TGGCTGCGGCCGGCGGCCCG belongs 0.51; to TTGGCGCTTCGTTCATTTGC, 0.61.

The target of another series is WWP1. The conditions noted are these: ASO.
As for AAATAACGGAAGTGAGCAAG, the remaining target (mRNA or protein) (fraction of control) was found to be 0.88.
AAATAGTGCCATGGCAATAA: the remaining target (mRNA or protein) (fraction of control) is 0.98.
The sequence AACAGTAGTACTAGTGCAAT showed a remaining target (mRNA or protein) (fraction of control) of no less than 1.
Same read-out and setting: to AACATTGAAGCCGAATAGAG belongs no less than 1; to AACTTCAGGTCATGTGAAGT, no less than 1.
AAGGTTGTGGTCTCTCCCAT: the remaining target (mRNA or protein) (fraction of control) was no less than 1.
Sequence AATTTCCCAGCCTTCTGGCA registered a remaining target (mRNA or protein) (fraction of control) of no less than 1.
Turning to ACTAGAGTGCTTGTAGGTAC, the remaining target (mRNA or protein) (fraction of control) is no less than 1.
Still for that read-out and setting: to AGAATGGTAAAGAGAAACCA belongs no less than 1; to AGTATCAATAGATTCCAAAT, no less than 1.
Consider ATACATTGGGTTCAAAACTT, for which the remaining target (mRNA or protein) (fraction of control) is 0.92.
Same read-out and setting: to ATCATCAACTCTTCTTTCCC belongs 0.7.
Sequence ATCTGCAGACAATAGTTGTT returned a remaining target (mRNA or protein) (fraction of control) of no less than 1.
Sequence ATCTTTGTTCTCCTCAGTCA displayed a remaining target (mRNA or protein) (fraction of control) of 0.92.
In turn, ATGTCAACAGAAAAGTACAT had a remaining target (mRNA or protein) (fraction of control) of no less than 1.
Still for that read-out and setting: to ATTCCAATTCTGCACTGGTA belongs no less than 1; to ATTGATCTTTACATGACTAG, 0.83.
Regarding CACCATAATCAAGTCCTTCT, the remaining target (mRNA or protein) (fraction of control) was 0.52.
The sequence CATAAGCAATTTGTGGACCA gave a remaining target (mRNA or protein) (fraction of control) of no less than 1.
Still for that read-out and setting: to CCTGGTGGCAAAGGTCCATA belongs no less than 1; to CTGTTGGAAGGAATCTTCAA, no less than 1.
CTTTGTTCCCACCCTGATGG displayed a remaining target (mRNA or protein) (fraction of control) of 0.98.
In turn, GAATTAGAGGTGTCAGGCTC displayed a remaining target (mRNA or protein) (fraction of control) of no less than 1.
Turning to GAGACGGAGATGAAGGTGTG, the remaining target (mRNA or protein) (fraction of control) was no less than 1.
The same measure, in the same setting: to GATCCACATAATAGGTTCTA belongs no less than 1; to GCAGGCTCAGATGCGAGTGG, no less than 1.
The sequence GCATAGCTCCCTGCAATTGG came in with a remaining target (mRNA or protein) (fraction of control) of no less than 1.
As to GTTGGTGCAAATGAGGATGA, the remaining target (mRNA or protein) (fraction of control) worked out at 0.95.
The sequence GTTGTTGTTCTGGTGTTATG had a remaining target (mRNA or protein) (fraction of control) of 0.95.
For the sequence TAAGCGCCTCCTCAAGTCAT, the remaining target (mRNA or protein) (fraction of control) amounted to 0.86.
Same read-out and setting: to TATGAAAGATGGTCTGGATT belongs 0.99; to TATGATCAACAAAGTACCTT, no less than 1; to TCAGACACTACTGGAGTACC, 0.76.
As for TCCCAGACTGCTGCCGTACA, the remaining target (mRNA or protein) (fraction of control) came out at 0.47.
On to TCCCATTGCGAGGATCTTTG, for which the remaining target (mRNA or protein) (fraction of control) was no less than 1.
Sequence TGTCTTGATTTGGCTGCTTC gave a remaining target (mRNA or protein) (fraction of control) of 0.91.
As to TGTTGTTATCTCTTATCCAG, the remaining target (mRNA or protein) (fraction of control) came to 0.92.
Turning to TTCAAAATTTCGGACAGATT, the remaining target (mRNA or protein) (fraction of control) was no less than 1.
On to TTTCTGAGGAAGTCAGTATT, for which the remaining target (mRNA or protein) (fraction of control) was no less than 1.
In turn, TTTGTGTTATGATTCACAAA yielded a remaining target (mRNA or protein) (fraction of control) of 0.95.

Another series deals with PTPN11. The following applies: ASO.
In turn, CATCTCCGCGATGTCATGTT registered a remaining target (mRNA or protein) (fraction of control) of 0.49.
CATGTTCCTCCCGCCCTCCG: the remaining target (mRNA or protein) (fraction of control) was determined as 0.29.
Regarding CCCTTGTCCAACCTTTGAAA, the remaining target (mRNA or protein) (fraction of control) stood at 0.25.
In turn, CCTGCGCTGTAGTGTTTCAA registered a remaining target (mRNA or protein) (fraction of control) of 0.5.
Still for that read-out and setting: to CGATGTCATGTTCCTCCCGC belongs 0.4; to CGCACCATCTGGATGGTTTT, 0.5.
For CGCGATGTCATGTTCCTCCC, the remaining target (mRNA or protein) (fraction of control) amounted to 0.45.
On to CTGTGGTCTCAGCTAATTTG, for which the remaining target (mRNA or protein) (fraction of control) was 0.35.
Consider GAAAGAACAAAATCTCCAGG, for which the remaining target (mRNA or protein) (fraction of control) was no less than 1.
The same measure, in the same setting: to GGCAGGTTTTCTCATCTGAA belongs 0.84.
Regarding GGCCCGCTCGGGACCGGACG, the remaining target (mRNA or protein) (fraction of control) amounted to 0.75.
With GTCATGTTCCTCCCGCCCTC, the remaining target (mRNA or protein) (fraction of control) amounted to 0.24.
Sequence TACAAGAAAACTACCATGTT showed a remaining target (mRNA or protein) (fraction of control) of no less than 1.
Same read-out and setting: to TCAACCACATTGCAAGCCTT belongs 0.27; to TCATCTGAAACTTTTCTGCT, 0.84; to TCCACCATAGGATTCTTCTT, 0.43.
In turn, TCCACTCGTCTGGTCCGCTA displayed a remaining target (mRNA or protein) (fraction of control) of 0.29.
TCCGCGATGTCATGTTCCTC had a remaining target (mRNA or protein) (fraction of control) of 0.26.
Still for that read-out and setting: to TCTCCGCGATGTCATGTTCC belongs 0.43; to TGTTCCTCCCGCCCTCCGGC, no less than 1; to TTCCATGTAATACTGGACCA, 0.29.
TTCTTCCCAAAAGCCTTGTT had a remaining target (mRNA or protein) (fraction of control) of 0.67.
TTGATGTGGGTGACAGCTCC yielded a remaining target (mRNA or protein) (fraction of control) of 0.42.
On the same count and under the same terms, to TTGCATTGATGTAATCTGAA belongs 0.98.
Consider TTTAAATGGTTTCAAATTTT, for which the remaining target (mRNA or protein) (fraction of control) was no less than 1.
Turning to TTTAGACTTGCCGTCATTGC, the remaining target (mRNA or protein) (fraction of control) was determined as 0.32.
